This assay concerns the target α7 nAChR subtype (Rattus norvegicus, UniProt Q05941). Format: binding. As to conditions: read-out: KD of radioligand.

α7 nAChR subtype, sequence (Q05941 23-502 limits assumed): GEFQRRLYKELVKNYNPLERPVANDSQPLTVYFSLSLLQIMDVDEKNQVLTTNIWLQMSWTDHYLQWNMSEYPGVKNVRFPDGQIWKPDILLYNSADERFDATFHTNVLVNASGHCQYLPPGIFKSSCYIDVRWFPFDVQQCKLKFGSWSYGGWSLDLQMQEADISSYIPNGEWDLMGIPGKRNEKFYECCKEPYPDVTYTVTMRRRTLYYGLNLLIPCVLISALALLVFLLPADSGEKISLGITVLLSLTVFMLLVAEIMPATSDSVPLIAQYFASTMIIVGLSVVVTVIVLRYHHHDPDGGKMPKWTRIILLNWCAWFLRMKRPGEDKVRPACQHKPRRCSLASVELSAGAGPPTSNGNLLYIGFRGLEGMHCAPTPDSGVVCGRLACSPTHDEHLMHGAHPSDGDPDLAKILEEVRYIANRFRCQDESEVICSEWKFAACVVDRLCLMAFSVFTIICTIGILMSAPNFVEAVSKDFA

The term Kd denotes the constant that tells how readily two partners part at equilibrium. For the substance 125I-α-Bungarotoxin [^125I-α-BTX], the Kd came out at 1.67 nM.

The values above are taken from patent US6683090B1 (priority 1999, dated 2004).
